Results as given in article PMC10964431 (European journal of medicinal chemistry, 2024).
Entries after “also recorded” stand apart in the source; their conditions may differ.

Tests used:
[1] = tested on: SARS-CoV-2; type: cell-based; conditions: VeroE6 cells
[2] = target: SARS-CoV-2 3CLpro (Severe acute respiratory syndrome coronavirus 2, UniProt P0DTD1); test: SARS-CoV-2 3CLpro; type: biochemical
[3] = tested on: SARS-CoV-2^WK−521; test: Immunocytochemistry assay of infected VeroE6 cells; type: cell-based; conditions: for infected cells by immunocytochemistry: VeroE6 cells exposed to SARS-CoV-2^WK−521; for infectivity and cytopathic effect of SARS-CoV-2: VeroE6^TMPRSS2 cells
[4] = tested on: VeroE6 cells

| Compound | infected cells by immunocytochemistry ([3]; 1 μM compound) | infected cells by immunocytochemistry ([3]; 10 μM compound) | infected cells by immunocytochemistry ([3]; 100 μM compound) | infectivity and cytopathic effect of SARS-CoV-2 [3] | also measured |
| --- | --- | --- | --- | --- | --- |
| CC(C)(C)[C@H](NC(=O)OCc1cccnc1)C(=O)N1C[C@H]2[C@@H]([C@H]1C(=O)N[C@H](C#N)C[C@@H]1CCNC1=O)C2(C)C [Compound 5k, Pyridin-3-ylmethyl((2S)-1-((1R,2S,5S)-2-((1-cyano-2-((S)-2-oxopyrrolidin-3-yl)ethyl)carbamoyl)-6,6-dimethyl-3-azabicyclo[3.1.0]hexan-3-yl)-3,3-dimethyl-1-oxobutan-2-yl)carbamate] |  |  |  |  | improvement of antiviral activity compared to benzyl carbamate derivative 5i [1]: > 8 fold |
| CC(C)(C)[C@H](NC(=O)C(Cl)(Cl)Cl)C(=O)N1C[C@H]2[C@@H]([C@H]1C(=O)N[C@H](C#N)C[C@@H]1CCCNC1=O)C2(C)C [Compound 5f, (1R,2S,5S)-N-((S)-1-Cyano-2-((S)-2-oxopiperidin-3-yl)ethyl)-3-((S)-3,3-dimethyl-2-(2,2,2-trichloroacetamido)butanoyl)-6,6-dimethyl-3-azabicyclo[3.1.0]hexane-2-carboxamide] |  |  |  |  | improvement in antiviral activity over nirmatrelvir 1 ([1]; ratio of EC50 values): over 7 fold |
| CC(C)(C)[C@H](NC(=O)C(F)(F)F)C(=O)N1C[C@H]2[C@@H]([C@H]1C(=O)N(C(=O)C(F)(F)F)[C@H](C#N)C[C@@H]1CCNC1=O)C2(C)C [Compound 5h, (1R,2S,5S)-N-((S)-1-Cyano-2-((S)-2-oxopyrrolidin-3-yl)ethyl)-3-((S)-3,3-dimethyl-2-(2,2,2-trifluoroacetamido)butanoyl)-6,6-dimethyl-N-(2,2,2-trifluoroacetyl)-3-azabicyclo[3.1.0] hexane-2-carboxamide] |  |  |  |  | Mpro inhibitory activity (in words) [2]: no appreciable; antiviral activity (in words) [1]: no appreciable |
| CC(C)(C)[C@H](NC(=O)C(F)(F)F)C(=O)N1C[C@H]2[C@@H]([C@H]1C(=O)N[C@H](C#N)C[C@@H]1CCNC1=O)C2(C)C [Nirmatrelvir, (1R,2S,5S)-N-((S)-1-Cyano-2-((S)-2-oxopyrrolidin-3-yl)ethyl)-3-((S)-3,3-dimethyl-2-(2,2,2-trifluoroacetamido)butanoyl)-6,6-dimethyl-3-azabicyclo[3.1.0]hexane-2-carboxamide, reference compound] | complete viral breakthrough | hardly any infected cells | hardly any infected cells | potently blocked |  |
| CC(C)(C)[C@H](NC(=O)C(F)(F)F)C(=O)N1C[C@H]2[C@@H]([C@H]1C(=O)N[C@H](C#N)C[C@@H]1CCCNC1=O)C2(C)C [Compound 5e, (1R,2S,5S)-N-((S)-1-Cyano-2-((S)-2-oxopiperidin-3-yl)ethyl)-3-((S)-3,3-dimethyl-2-(2,2,2-trifluoroacetamido)butanoyl)-6,6-dimethyl-3-azabicyclo[3.1.0]hexane-2-carboxamide] | some infected cells were observed | hardly any infected cells | hardly any infected cells | significantly reduced; also recorded: potently blocked | improvement of Mpro inhibitory activity over nirmatrelvir 1 ([2]; ratio of Ki values): more than 6 fold; toxicity [4]: without significant toxicity |
| CC(C)(C)NC(=O)N[C@H](C(=O)N1C[C@H]2[C@@H]([C@H]1C(=O)N[C@H](C#N)C[C@@H]1CCNC1=O)C2(C)C)C(C)(C)C [Compound 5m, (1R,2S,5S)-3-((S)-2-(3-(Tert-butyl)ureido)-3,3-dimethylbutanoyl)-N-((S)-1-cyano-2-((S)-2-oxopyrrolidin-3-yl)ethyl)-6,6-dimethyl-3-azabicyclo[3.1.0]hexane-2-carboxamide] |  |  |  |  | loss of antiviral activity compared to Boc-derivative 5g [1]: 3 fold |
